Reference: patent publication US8563599B2, “Methods for synthesizing glycinols, glyceollins I and II, compositions of selected intermediates, and therapeutic uses thereof” (The United States of America, represented by the Secretary …, priority 2008, dated 2013)
Where two headings read alike, the source gives them in different places.

Key:
[1] = molecular target: T1, hrER-α (alpha estrogen receptor) (Homo sapiens, UniProt P03372); test: ER-α competition binding assay (fluorescence anisotropy, ES2 displacement); settings: ERα/ES2 complex, 2 h room temperature, FIG. 9; read-out: IC50 for 50% inhibition of a standard's binding with the alpha estrogen receptor (ER-α)
T1 sequence (P03372 1-595): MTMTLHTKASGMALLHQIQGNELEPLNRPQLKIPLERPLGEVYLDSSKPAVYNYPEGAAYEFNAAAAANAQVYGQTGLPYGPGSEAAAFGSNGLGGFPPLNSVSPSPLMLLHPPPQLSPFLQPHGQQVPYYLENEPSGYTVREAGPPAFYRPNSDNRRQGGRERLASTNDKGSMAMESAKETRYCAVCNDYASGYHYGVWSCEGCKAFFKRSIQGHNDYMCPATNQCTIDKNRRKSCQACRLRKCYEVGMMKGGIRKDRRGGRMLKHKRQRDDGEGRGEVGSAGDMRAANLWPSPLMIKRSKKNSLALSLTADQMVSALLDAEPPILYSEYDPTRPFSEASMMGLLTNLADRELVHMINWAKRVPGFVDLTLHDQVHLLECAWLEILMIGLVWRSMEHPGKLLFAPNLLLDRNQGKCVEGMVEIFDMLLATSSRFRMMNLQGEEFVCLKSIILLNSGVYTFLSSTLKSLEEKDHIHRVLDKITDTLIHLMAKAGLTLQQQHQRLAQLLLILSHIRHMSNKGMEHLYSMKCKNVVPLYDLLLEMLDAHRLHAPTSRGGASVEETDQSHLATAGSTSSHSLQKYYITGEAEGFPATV
Procedure: This example illustrates how the biological data pertaining to interaction of the compounds with the alpha-estrogen receptors was obtained.
A 200 μM working stock solution of GLY I was prepared from an original 10 mM DMSO stock solution. The working stock solution was serially diluted in triplicate in screening buffer to the desired concentrations. hrER-α and ES2 were added to a final concentration of 2 nM and 3 nM, respectively. Negative (ER+ES2, equivalent to 0% inhibition) and positive (free ES2, equivalent to 100% inhibition) controls in the absence of competitor were measured in duplicate. After 2 h at room temperature, the anisotropy values in each tube were measured using the Beacon 2000 system CO. The anisotropy values were converted to percent inhibition using the following formula: I%=(A0−A)/(A0−A100)×100, where I% is the percent inhibition, A0 is 0% inhibition, A100 is 100% inhibition, and A represents the observed value. Polarization values were converted to percent inhibition to make the data more intuitive to the reader and to normalize the day-to-day differences in the starting 0% inhibition polarization values. The percent inhibition versus competitor concentration curves were analyzed by nonlinear least-squares curve fitting and yielded an IC50 value (the concentration of competitor needed to displace half of the bound ligand). To compare binding affinities of the test compounds to those reported in the literature, IC50 values were converted to relative binding affinities (RBA) using E2 as a standard. The E2 RBA was set equal to 100 […].

NCI/ADR-RES cells = test: Growth inhibition assay (NCI method, sulforhodamine B), NCI/ADR-RES; assay type: cell-based, human; settings: for GI50: read-out: GI50 (μM) NCI/ADR-RES; for fall-off in activity in NCI/ADR-RES versus MCF7: multidrug resistant cell line over-expressing Pgp
ABTS antioxidant assay = settings: for antioxidant activity relative to the standards daidzein and genistein: ABTS assay, summary of Table 1; for Trolox Equivalents (μmol/μmol): IC50 compared to IC50 of trolox; for IC50: concentration causing 50% reduction in ABTS absorbance, 2 min, room temperature
Procedure: This example illustrates how the biological data pertaining to antioxidant properties of the compounds was obtained.
The antioxidant activity of each test agent was assayed by a colorimetric assay described in the literature that utilizes 2,2′-azinobis-3-ethylbenzothiazoline-6-sulfonic acid (ABTS). ABTS has an intense blue-green color in its free radical form, but is colorless without the free radical. Free radical ABTS was generated by reacting 7 mM ABTS with 2.45 mM potassium persulfate in water for 24-48 hr at room temperature in the dark. Test agents were diluted in 50/50 phosphate buffered saline (PBS)/ethanol to a series of five concentrations, then added to a 96 well half-area plate using 50 μl per well with four wells for each agent concentration. Four control wells containing 50/50 PBS/ethanol without test agents were setup for comparison for each test agent. Trolox, a water-soluble form of vitamin E commonly employed as an antioxidant standard, was also tested in each set of experiments. The free radical ABTS solution was diluted with 50/50 PBS/ethanol to give an absorbance of 1.4 absorbance units at 734 nm, and was then added 50 μl per well to two of the four wells for each condition. The other two wells for each condition received 50 μl of 50/50 PBS/ethanol without ABTS to provide background correction absorbance readings. All dilution and plate loading operations were performed on a Packard Multiprobe II HTS automated liquid handling system. […] Readings for wells with ABTS were background corrected using the corresponding wells containing matching test agent levels without ABTS. The background corrected absorbance of each test agent concentration was then compared to the control wells without agent to determine the percent decrease in color intensity, corresponding to the percent of ABTS free radical reduction. A fit of percent absorbance decrease versus test agent concentration was then used to estimate the concentration causing a 50% reduction in absorbance, called the IC50. The test agent IC50 values were then compared to the IC50 of trolox to calculate the trolox equivalents (TE, moles of trolox needed to give the same level of antioxidant activity as one mole of test agent) for each agent. Smaller IC50 values or larger TE values indicate higher levels of antioxidant activity.

MCF7 cells = test: Growth inhibition assay (NCI method, sulforhodamine B), MCF7; assay type: cell-based, human; settings: for GI50: read-out: GI50 (μM) MCF7
MCF12A cells = test: Growth inhibition assay (NCI method, sulforhodamine B), MCF12A; assay type: cell-based, human; settings: for GI50: read-out: GI50 (μM) MCF12A
[2] = tested on: estrogen receptor (ERE-luciferase) in MCF7 ER-positive cells; test: ERE-Luciferase assay, estrogenic and antiestrogenic activity; assay type: cell-based, human
Procedure: Cell Culture Studies (MCF7 ER-Positive Cells)
Human cancer cell lines derived from breast (MCF7, ER-positive cells) were cultured in 75 ml culture flasks in DMEM (Invitrogen, Co.) supplemented with 10% FBS (Life Technologies, Inc., Gaithersburg, Md.), basic minimum MEM essential (50×, Invitrogen Co.) and MEM non-essential (100×, Invitrogen, Co.) amino acids, sodium pyruvate (100× Invitrogen Co.), antimicotic-antibiotic (10,000 U/mL penicillin G sodium; 10,000 μg/mL streptomycin sulphate; 25 μg/mL amphotericin B as Fungizone®), and human recombinant insulin (4 mg/mL. Invitrogen Co.). The culture flasks were maintained in a tissue culture incubator in a humidified atmosphere of 5% CO2 and 95% air at 37° C. For estrogen studies, cells were washed with PBS 3 times and grown in phenol red-free DMEM supplemented with 5% dextran-coated charcoal-treated FBS (5% CS-FBS) for 72 h before plating for each particular experiment.
Results were then assessed by using an ERE-luciferase assay. The cells were plated in 24 well plates at 5×10^5 cells/well in the same media and allowed to attach overnight. After 18 hours, cells were transfected for 5 h in serum supplemented-free DMEM with […] pGL2-ERE2X-TK-luciferase plasmid, using 6 μl of effectine (Qiagen)/μg of DNA. After 5 h the transfection medium was removed and replaced with phenol red-free DMEM supplemented with 5% CS-FBS containing vehicle, 17β-estradiol, GLY I, or 17β-estradiol plus GLY I, and incubated at 37° C. After 18 h the medium was removed, and 100 μl of lysis buffer was added per well and then incubated for 15 min at room temperature. Cell debris was pelleted by centrifugation at 15000×g for 5 min. cell extracts were normalized for protein concentration using reagent according to the protocol supplied by the manufacturer (Bio-Rad Laboratories, Inc., Hercules, Calif.). Luciferase activity for the cell extracts was determined using Luciferase substrate (Promega Corp.) in an Autoluminat Plus luminometer.

[3] = Homo sapiens, NCI/ADR-RES, 48 h
[4] = multidrug resistant cell line, 48 hr
[5] = human breast cancer cells, 48 hr, 10% serum
[6] = non-cancerous 'normal' human breast epithelial cells, 48 hr
[7] = Homo sapiens, NCI/ADR-RES, multidrug resistant cell line, 48 hr
[8] = MCF7, human breast cancer cells, 48 hr, 10% serum
[9] = MCF-12A, non-cancerous 'normal' human breast epithelial cells, 48 hr

| SMILES | Trolox Equivalents (μmol/μmol) (ABTS antioxidant assay) | IC50 (ABTS antioxidant assay) [µM] | GI50 (NCI/ADR-RES cells; [4]) [µM] | GI50 (MCF7 cells; [5]) [µM] | GI50 (MCF12A cells; [6]) [µM] | GI50 (NCI/ADR-RES cells; [7]) [µM] | GI50 (MCF7 cells; [8]) [µM] | GI50 (MCF12A cells; [9]) [µM] | further results |
| --- | --- | --- | --- | --- | --- | --- | --- | --- | --- |
| CC1(C)C=Cc2c(ccc3c2OC[C@@]2(O)c4ccc(O)cc4O[C@@H]32)O1 [isolated GLY I, reference compound] | – | – | – | – | – | – | – | – | IC50 [1]: 1.1 µM |
| CC(C)(C)[Si](C)(C)Oc1ccc(C2(O)COc3cc(OCc4ccccc4)ccc3C2O)c(OCc2ccccc2)c1 (racemic) [2 (+/−), (+) 4′-(t-Butyldimethylsilyloxy)-2′,7-dibenzyloxy-isoflavan-3,4-diol] | 0.008 ± 0.006 | > 100 | – | – | – | – | – | – | GI50 (NCI/ADR-RES cells; [3]): 120 µM; fall-off in activity in NCI/ADR-RES versus MCF7 (NCI/ADR-RES cells): ca. 100 fold; antioxidant activity relative to the standards daidzein and genistein (ABTS antioxidant assay): weak activity; GI50 (MCF7 cells; Homo sapiens, MCF7, 48 h): 10 µM; GI50 (MCF12A cells; Homo sapiens, MCF-12A, 48 h): 20 µM |
| Oc1ccc2c(c1)OC[C@@]1(O)c3ccc(O)cc3O[C@@H]21 (racemic) [Glycinol (+/−), (+) Glycinol] | 2.8 ± 0.2 | 3.5 ± 0.3 | > 1000 | > 1000 | > 1000 | – | – | – | antioxidant activity relative to the standards daidzein and genistein (ABTS antioxidant assay): about equiactive to the standards; estrogenic activity (ERE-Luciferase) ([2]; concentration not given): significantly stronger estrogenic material; growth inhibitory activity (MCF7 cells; human breast cell lines, 10% serum): lack of growth inhibitory activity |
| O=c1c(-c2ccc(O)cc2)coc2cc(O)ccc12 [Daidzein, reference compound] | 3.0 ± 0.1 | 3.3 ± 0.2 | – | – | – | 150 | 200 | 120 | – |
| CC(C)(C)[Si](C)(C)Oc1ccc2c(c1)OC1c3ccc(O)cc3OCC21O (single isomer, unassigned; (-)) [4 (−), (−) 9-(t-Butyldimethylsilyloxy)-glycinol] | 1.9 ± 0.1 | 5 ± 0.5 | 8.7 | 7.1 | 11 | – | – | – | – |
| CC(C)(C)[Si](C)(C)Oc1ccc2c(c1)OC1c3ccc(O)cc3OCC21O (racemic) [4 (+/−), (+) 9-(t-Butyldimethylsilyloxy)-glycinol] | 2.0 ± 0.1 | 4.6 ± 0.2 | 2.9 | 4.1 | 4 | – | – | – | – |
| O=c1c(-c2ccc(O)cc2)coc2cc(O)cc(O)c12 [Genistein, reference compound] | 3.0 ± 0.1 | 3.3 ± 0.1 | – | – | – | 17 | 46 | 22 | – |
| CC(=O)O[C@H]1C(=O)[C@@]2(C)[C@H]([C@H](OC(=O)c3ccccc3)[C@]3(O)C[C@H](OC(=O)[C@H](O)[C@@H](NC(=O)c4ccccc4)c4ccccc4)C(C)=C1C3(C)C)[C@]1(OC(C)=O)CO[C@@H]1C[C@@H]2O [paclitaxel, reference compound] | – | – | – | – | – | – | – | – | fall-off in activity in NCI/ADR-RES versus MCF7 (NCI/ADR-RES cells): ~1,000 fold; potency in MCF7 versus MCF12A (differential in activity) (MCF12A cells; cancer versus normal breast cells): nearly equivalent |
| CC1(C)C=Cc2c(ccc3c2OC[C@@]2(O)c4ccc(O)cc4O[C@@H]32)O1 [7 (−), Glyceollin I (Natural Glyceollin I)] | 1.8 ± 0.1 | 5.3 ± 0.3 | – | – | – | 27 | 12 | 25 | IC50 [1]: 1.4 µM; anti-estrogenic activity (ERE-Luciferase) ([2]; at 10-25 μM): only anti-estrogenic activity |
| CC1(C)C=Cc2c(ccc3c2OC[C@]2(O)c4ccc(O)cc4O[C@H]32)O1 [7 (+), (+) Glyceollin I (Unnatural Glyceollin I)] | 1.8 ± 0.1 | 5.2 ± 0.3 | – | – | – | 38 | 21 | 31 | IC50 [1]: 1.4 µM; estrogenic activity (ERE-Luciferase) ([2]; at 10-25 μM): modest estrogenic activity; anti-estrogenic effects (ERE-Luciferase) ([2]; concentration not given): only slight anti-estrogenic effects |
| CC(C)(C)[Si](C)(C)Oc1ccc(C2(O)COc3cc(O)ccc3C2O)c(O)c1 (racemic) [3 (+/−), (+) 4′-(t-Butyldimethylsilyloxy)-2′,7-dihydroxy-isoflavan-3,4-diol] | 2.0 ± 0.1 | 4.6 ± 0.3 | – | – | – | – | – | – | GI50 (NCI/ADR-RES cells; [3]): 21 µM; GI50 (MCF7 cells; Homo sapiens, MCF7, 48 h): 31 µM; GI50 (MCF12A cells; Homo sapiens, MCF-12A, 48 h): 36 µM |
| CC(C)(C)[Si](C)(C)Oc1ccc2c(c1)OC1c3ccc(O)cc3OCC21O (single isomer, unassigned; (+)) [4 (+), (+) 9-(t-Butyldimethylsilyloxy)-glycinol] | 1.9 ± 0.1 | 5 ± 0.4 | 13 | 14 | 15 | – | – | – | – |
